Experimental data reported in paper PMC9856672, “SGC-CAMKK2-1: A Chemical Probe for CAMKK2” (Cells, 2023).

Legend:
MAP4K2 = target: T1, MAP4K2 (Homo sapiens, UniProt Q12851); assay: KINOMEscan 1 μM, MAP4K2; format: binding; conditions: 1000 nM; Entrez MAP4K2; read-out: Percent Control
T1 construct: purchased Eurofins DiscoverX KINOMEscan
From the text: (§1) Supplement cells-12-00287-s001.zip/File S2. KinomeScan data for the CAMKK2 probe and negative control.xlsx, sheet "SGC-CAMKK2-1" | column: Percent Control

TAOK1 = target: T2, TAOK1 (Homo sapiens, UniProt Q7L7X3); assay: KINOMEscan 1 μM, TAOK1; format: binding; conditions: 1000 nM; Entrez TAOK1; read-out: Percent Control
T2 construct: purchased Eurofins DiscoverX KINOMEscan
From the text: as §1

[1] = target: T3, ABL1(E255K)-phosphorylated (Homo sapiens, UniProt P00519, E255K); assay: KINOMEscan 1 μM, ABL1(E255K)-phosphorylated; format: binding; conditions: 1000 nM; Entrez ABL1; read-out: Percent Control
T3 construct: purchased Eurofins DiscoverX KINOMEscan
From the text: as §1

DMPK2 = target: T4, DMPK2 (Homo sapiens, UniProt Q6DT37); assay: KINOMEscan 1 μM, DMPK2; format: binding; conditions: 1000 nM; Entrez CDC42BPG; read-out: Percent Control
T4 construct: purchased Eurofins DiscoverX KINOMEscan
From the text: as §1

SBK1 = target: T5, SBK1 (Homo sapiens, UniProt Q52WX2); assay: DiscoverX KINOMEscan binding assay at 1 μM, SBK1; conditions: Compound Concentration 1000 nM, read-out: Percent Control
T5 construct: purchased Eurofins DiscoverX KINOMEscan
From the text: as §1

CDK3 = target: T6, CDK3 (Homo sapiens, UniProt Q00526); assay: KINOMEscan 1 μM, CDK3; format: binding; conditions: 1000 nM; Entrez CDK3; read-out: Percent Control
T6 construct: purchased Eurofins DiscoverX KINOMEscan
From the text: as §1

ABL2 = target: T7, ABL2 (Homo sapiens, UniProt P42684); assay: KINOMEscan 1 μM, ABL2; format: binding; conditions: 1000 nM; Entrez ABL2; read-out: Percent Control
T7 construct: purchased Eurofins DiscoverX KINOMEscan
From the text: as §1

YSK1 = target: T8, YSK1 (Homo sapiens, UniProt O00506); assay: DiscoverX KINOMEscan binding assay at 1 μM, YSK1; conditions: YSK1 (STK25); Compound Concentration 1000 nM; read-out: Percent Control
T8 construct: purchased Eurofins DiscoverX KINOMEscan
From the text: as §1

TIE1 = target: T9, TIE1 (Homo sapiens, UniProt P35590); assay: KINOMEscan 1 μM, TIE1; format: binding; conditions: 1000 nM; Entrez TIE1; read-out: Percent Control
T9 construct: purchased Eurofins DiscoverX KINOMEscan
From the text: as §1

TRPM6 = target: T10, TRPM6 (Homo sapiens, UniProt Q9BX84); assay: DiscoverX KINOMEscan binding assay at 1 μM, TRPM6; conditions: Compound Concentration 1000 nM, read-out: Percent Control
T10 construct: purchased Eurofins DiscoverX KINOMEscan
From the text: as §1

ZAP70 = target: T11, ZAP70 (Homo sapiens, UniProt P43403); assay: DiscoverX KINOMEscan binding assay at 1 μM, ZAP70; conditions: Compound Concentration 1000 nM, read-out: Percent Control
T11 construct: purchased Eurofins DiscoverX KINOMEscan
From the text: as §1

CSNK2A1 = target: T12, CSNK2A1 (Homo sapiens, UniProt P68400); assay: KINOMEscan 1 μM, CSNK2A1; format: binding; conditions: 1000 nM; Entrez CSNK2A1; read-out: Percent Control
T12 construct: purchased Eurofins DiscoverX KINOMEscan
From the text: as §1

FRK = target: T13, FRK (Homo sapiens, UniProt P42685); assay: KINOMEscan 1 μM, FRK; format: binding; conditions: 1000 nM; Entrez FRK; read-out: Percent Control
T13 construct: purchased Eurofins DiscoverX KINOMEscan
From the text: as §1

EPHA2 = target: T14, EPHA2 (Homo sapiens, UniProt P29317); assay: KINOMEscan 1 μM, EPHA2; format: binding; conditions: 1000 nM; Entrez EPHA2; read-out: Percent Control
T14 construct: purchased Eurofins DiscoverX KINOMEscan
From the text: as §1

MST1R = target: T15, MST1R (Homo sapiens, UniProt Q04912); assay: KINOMEscan 1 μM, MST1R; format: binding; conditions: 1000 nM; Entrez MST1R; read-out: Percent Control
T15 construct: purchased Eurofins DiscoverX KINOMEscan
From the text: as §1

ARK5 = target: T16, ARK5 (Homo sapiens, UniProt O60285); assay: KINOMEscan at 1 μM, ARK5; format: binding; conditions: 1000 nM, read-out: Percent Control
T16 construct: purchased Eurofins DiscoverX KINOMEscan
From the text: (§2) Supplement cells-12-00287-s001.zip/File S2. KinomeScan data for the CAMKK2 probe and negative control.xlsx, sheet "SGC-CAMKK2-1N" | column: Percent Control

FLT4 = target: T17, FLT4 (Homo sapiens, UniProt P35916); assay: KINOMEscan at 1 μM, FLT4; format: binding; conditions: 1000 nM, read-out: Percent Control
T17 construct: purchased Eurofins DiscoverX KINOMEscan
From the text: as §2

[2] = target: T18, JAK1(JH2domain-pseudokinase) (Homo sapiens, UniProt P23458); assay: KINOMEscan at 1 μM, JAK1(JH2domain-pseudokinase); format: binding; conditions: 1000 nM, read-out: Percent Control
T18 construct: JAK1(JH2domain-pseudokinase); purchased Eurofins DiscoverX KINOMEscan
From the text: as §2

EGFR(S752-I759del) = target: T19, EGFR(S752-I759del) (Homo sapiens, UniProt P00533, DEL752-759); assay: KINOMEscan binding assay at 1 μM, EGFR(S752-I759del); conditions: Compound Concentration 1000 nM; read-out: Percent Control
T19 construct: purchased Eurofins DiscoverX KINOMEscan
From the text: as §2

CDK2 = target: T20, CDK2 (Homo sapiens, UniProt P24941); assay: KINOMEscan at 1 μM, CDK2; format: binding; conditions: 1000 nM, read-out: Percent Control
T20 construct: purchased Eurofins DiscoverX KINOMEscan
From the text: as §2

WNK2 = target: T21, WNK2 (Homo sapiens, UniProt Q9Y3S1); assay: KINOMEscan at 1 μM, WNK2; format: binding; conditions: 1000 nM, read-out: Percent Control
T21 construct: purchased Eurofins DiscoverX KINOMEscan
From the text: as §2

CTK = target: T22, CTK (Homo sapiens, UniProt P42679); assay: KINOMEscan at 1 μM, CTK; format: binding; conditions: 1000 nM, read-out: Percent Control
T22 construct: purchased Eurofins DiscoverX KINOMEscan
From the text: as §2

PRKCE = target: T23, PRKCE (Homo sapiens, UniProt Q02156); assay: KINOMEscan binding assay at 1 μM, PRKCE; conditions: Compound Concentration 1000 nM; read-out: Percent Control
T23 construct: purchased Eurofins DiscoverX KINOMEscan
From the text: as §2

PAK3 = target: T24, PAK3 (Homo sapiens, UniProt O75914); assay: KINOMEscan binding assay at 1 μM, PAK3; conditions: Compound Concentration 1000 nM; read-out: Percent Control
T24 construct: purchased Eurofins DiscoverX KINOMEscan
From the text: as §2

GRK4 = target: T25, GRK4 (Homo sapiens, UniProt P32298); assay: KINOMEscan binding assay at 1 μM, GRK4; conditions: Compound Concentration 1000 nM; read-out: Percent Control
T25 construct: purchased Eurofins DiscoverX KINOMEscan
From the text: as §2

[3] = target: T26, ABL1(Q252H)-phosphorylated (Homo sapiens, UniProt P00519, Q252H); assay: KINOMEscan at 1 μM, ABL1(Q252H)-phosphorylated; format: binding; conditions: 1000 nM, read-out: Percent Control
T26 construct: purchased Eurofins DiscoverX KINOMEscan
From the text: as §2

[4] = target: T27, ABL1(Q252H)-nonphosphorylated (Homo sapiens, UniProt P00519, Q252H); assay: KINOMEscan at 1 μM, ABL1(Q252H)-nonphosphorylated; format: binding; conditions: 1000 nM, read-out: Percent Control
T27 construct: purchased Eurofins DiscoverX KINOMEscan
From the text: as §2

MLK1 = target: T28, MLK1 (Homo sapiens, UniProt P80192); assay: KINOMEscan at 1 μM, MLK1; format: binding; conditions: 1000 nM, read-out: Percent Control
T28 construct: purchased Eurofins DiscoverX KINOMEscan
From the text: as §2

[5] = Single dose IP pharmacokinetic study in mice; format: in vivo, CD-1 mice; conditions: mouse, 10 mg/kg IP, plasma at 0.5, 1, 3, 8 h
Procedure: CD-1 mice with weights 23–25 g were purchased from Charles River Laboratories.
The animal experiments were performed at Alliance Pharma (Malvern, PA, USA) in accordance with the guide for the care and use of laboratory animals. Alliance Pharma is accredited by the Association for Assessment and Accreditation of Laboratory Animal Care (AAALAC).
The test compounds were dissolved in DMSO and then diluted to the appropriate concentration with the vehicle. For formulation we targeted the minimal amount of DMSO that could be used in combination with a formulation composed of 0.5% HPMC/0.2% Polysorbate 80. […] Blood was collected at t = 0.5, 1, 3, and 8 h and immediately spun for 3 min, the plasma was collected, and compound levels were quantified with HPLC/MS. The raw data are available in the Supplemental Information.
With the probe molecule having favorable selectivity and potency in vitro and in a cellular context, we next wanted to determine its suitability for in vivo experiments. SGC-CAMKK2-1 (5) was progressed to a single dose mouse intraperitoneal (I.P) experiment.

T18 sequence (P23458 583-855 limits assumed): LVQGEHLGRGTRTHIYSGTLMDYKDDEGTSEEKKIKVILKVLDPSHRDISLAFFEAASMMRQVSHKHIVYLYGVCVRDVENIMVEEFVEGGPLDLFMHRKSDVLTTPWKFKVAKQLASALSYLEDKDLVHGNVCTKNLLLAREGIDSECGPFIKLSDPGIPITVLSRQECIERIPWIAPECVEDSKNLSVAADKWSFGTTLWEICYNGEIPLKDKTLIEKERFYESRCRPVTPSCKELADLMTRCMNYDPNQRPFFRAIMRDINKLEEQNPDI
T17 sequence (P35916 25-1363): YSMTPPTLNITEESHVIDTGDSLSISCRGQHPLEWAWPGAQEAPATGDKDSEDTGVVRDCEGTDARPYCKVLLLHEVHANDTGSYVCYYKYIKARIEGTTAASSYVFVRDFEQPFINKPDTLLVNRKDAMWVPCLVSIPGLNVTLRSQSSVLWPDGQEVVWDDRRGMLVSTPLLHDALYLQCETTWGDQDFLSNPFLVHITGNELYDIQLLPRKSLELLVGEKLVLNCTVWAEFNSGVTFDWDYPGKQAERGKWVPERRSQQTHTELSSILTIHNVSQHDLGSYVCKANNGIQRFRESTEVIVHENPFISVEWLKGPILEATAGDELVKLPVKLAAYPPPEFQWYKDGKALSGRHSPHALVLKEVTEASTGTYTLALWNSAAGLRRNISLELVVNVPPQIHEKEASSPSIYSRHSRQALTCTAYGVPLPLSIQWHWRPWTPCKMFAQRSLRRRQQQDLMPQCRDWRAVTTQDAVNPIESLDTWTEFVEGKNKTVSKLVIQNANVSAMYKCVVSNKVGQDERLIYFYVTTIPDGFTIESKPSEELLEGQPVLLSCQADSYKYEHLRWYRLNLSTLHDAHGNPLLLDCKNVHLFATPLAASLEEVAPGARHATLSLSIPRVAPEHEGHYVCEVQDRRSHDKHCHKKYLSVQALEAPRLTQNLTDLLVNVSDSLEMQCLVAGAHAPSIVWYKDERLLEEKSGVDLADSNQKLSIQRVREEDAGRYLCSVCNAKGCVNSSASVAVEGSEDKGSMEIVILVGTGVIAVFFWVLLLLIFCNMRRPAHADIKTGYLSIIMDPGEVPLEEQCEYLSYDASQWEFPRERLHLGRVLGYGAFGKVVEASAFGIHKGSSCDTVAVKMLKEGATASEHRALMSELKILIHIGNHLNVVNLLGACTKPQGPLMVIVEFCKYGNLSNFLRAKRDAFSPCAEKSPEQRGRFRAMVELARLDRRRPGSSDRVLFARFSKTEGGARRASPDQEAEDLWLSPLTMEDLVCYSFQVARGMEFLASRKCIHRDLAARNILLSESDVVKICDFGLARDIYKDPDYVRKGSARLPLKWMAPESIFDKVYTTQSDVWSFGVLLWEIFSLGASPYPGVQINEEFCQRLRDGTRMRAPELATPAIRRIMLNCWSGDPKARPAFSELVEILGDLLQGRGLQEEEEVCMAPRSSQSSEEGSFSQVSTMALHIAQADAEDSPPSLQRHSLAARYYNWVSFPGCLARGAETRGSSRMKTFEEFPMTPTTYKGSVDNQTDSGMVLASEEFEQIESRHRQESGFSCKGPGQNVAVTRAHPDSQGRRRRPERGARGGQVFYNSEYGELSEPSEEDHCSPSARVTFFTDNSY
T13 sequence (P42685 whole entry): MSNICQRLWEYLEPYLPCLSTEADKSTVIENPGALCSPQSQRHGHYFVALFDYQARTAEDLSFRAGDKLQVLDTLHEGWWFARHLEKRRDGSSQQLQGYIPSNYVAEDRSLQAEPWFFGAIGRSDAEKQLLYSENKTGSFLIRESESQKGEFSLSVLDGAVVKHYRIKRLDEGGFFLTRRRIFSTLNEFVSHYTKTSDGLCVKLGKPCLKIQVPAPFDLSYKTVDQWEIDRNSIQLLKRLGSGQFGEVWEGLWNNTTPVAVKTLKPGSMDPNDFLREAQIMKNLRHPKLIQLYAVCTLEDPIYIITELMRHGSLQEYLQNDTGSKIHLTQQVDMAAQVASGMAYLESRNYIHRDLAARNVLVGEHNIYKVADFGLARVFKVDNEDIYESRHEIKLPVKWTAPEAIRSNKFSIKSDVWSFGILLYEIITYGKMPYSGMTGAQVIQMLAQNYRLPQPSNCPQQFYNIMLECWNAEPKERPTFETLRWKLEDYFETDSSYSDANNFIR
T5 sequence (Q52WX2 whole entry): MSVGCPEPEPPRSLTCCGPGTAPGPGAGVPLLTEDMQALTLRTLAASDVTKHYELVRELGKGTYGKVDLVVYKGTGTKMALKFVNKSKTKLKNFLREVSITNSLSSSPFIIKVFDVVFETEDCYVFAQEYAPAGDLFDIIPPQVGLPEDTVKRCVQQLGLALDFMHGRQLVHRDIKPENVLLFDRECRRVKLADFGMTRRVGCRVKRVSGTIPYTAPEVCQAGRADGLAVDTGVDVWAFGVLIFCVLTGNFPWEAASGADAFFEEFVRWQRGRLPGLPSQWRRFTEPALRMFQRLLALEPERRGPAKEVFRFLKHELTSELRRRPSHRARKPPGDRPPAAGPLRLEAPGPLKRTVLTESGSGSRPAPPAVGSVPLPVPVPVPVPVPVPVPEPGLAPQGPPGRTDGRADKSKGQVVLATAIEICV
T4 sequence (Q6DT37 whole entry): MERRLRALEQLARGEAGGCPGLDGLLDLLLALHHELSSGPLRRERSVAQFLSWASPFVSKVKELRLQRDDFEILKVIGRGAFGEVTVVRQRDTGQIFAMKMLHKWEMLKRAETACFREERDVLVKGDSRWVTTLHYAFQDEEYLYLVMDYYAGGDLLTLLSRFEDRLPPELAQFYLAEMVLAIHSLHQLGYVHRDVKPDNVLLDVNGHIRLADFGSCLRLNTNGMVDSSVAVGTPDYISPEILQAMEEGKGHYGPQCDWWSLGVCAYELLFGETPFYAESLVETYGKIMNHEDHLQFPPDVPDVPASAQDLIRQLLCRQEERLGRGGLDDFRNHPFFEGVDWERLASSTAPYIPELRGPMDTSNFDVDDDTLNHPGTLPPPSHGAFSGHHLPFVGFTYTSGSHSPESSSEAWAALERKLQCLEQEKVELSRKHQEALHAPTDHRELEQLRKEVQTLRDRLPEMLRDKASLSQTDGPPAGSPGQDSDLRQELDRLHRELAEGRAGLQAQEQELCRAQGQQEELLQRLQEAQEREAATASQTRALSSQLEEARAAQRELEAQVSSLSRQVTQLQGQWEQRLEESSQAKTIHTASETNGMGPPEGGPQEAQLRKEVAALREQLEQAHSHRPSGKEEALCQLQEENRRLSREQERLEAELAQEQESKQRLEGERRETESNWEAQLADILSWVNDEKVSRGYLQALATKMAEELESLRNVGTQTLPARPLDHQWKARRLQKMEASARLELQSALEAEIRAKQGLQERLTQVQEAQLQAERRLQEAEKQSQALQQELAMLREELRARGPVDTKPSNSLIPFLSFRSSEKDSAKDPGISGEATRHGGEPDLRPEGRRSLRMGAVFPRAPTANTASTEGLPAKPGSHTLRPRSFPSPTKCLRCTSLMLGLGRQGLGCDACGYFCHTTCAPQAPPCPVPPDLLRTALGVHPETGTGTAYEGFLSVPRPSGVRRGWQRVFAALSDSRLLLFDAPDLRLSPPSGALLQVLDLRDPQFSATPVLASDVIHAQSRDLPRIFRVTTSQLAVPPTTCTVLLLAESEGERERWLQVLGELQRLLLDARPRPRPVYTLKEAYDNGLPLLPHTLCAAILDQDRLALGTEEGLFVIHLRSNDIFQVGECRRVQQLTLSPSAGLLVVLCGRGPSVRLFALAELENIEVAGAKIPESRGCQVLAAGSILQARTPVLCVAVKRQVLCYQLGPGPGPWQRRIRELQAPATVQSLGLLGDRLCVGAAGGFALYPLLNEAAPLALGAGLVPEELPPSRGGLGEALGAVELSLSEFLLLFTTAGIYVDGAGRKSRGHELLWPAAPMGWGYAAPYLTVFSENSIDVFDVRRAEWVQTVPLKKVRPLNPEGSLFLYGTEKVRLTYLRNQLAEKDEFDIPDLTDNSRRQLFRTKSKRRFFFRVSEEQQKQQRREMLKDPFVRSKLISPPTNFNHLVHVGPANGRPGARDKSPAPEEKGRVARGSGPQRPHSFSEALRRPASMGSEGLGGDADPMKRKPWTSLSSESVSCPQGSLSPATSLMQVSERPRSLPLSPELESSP
T25 sequence (P32298 whole entry): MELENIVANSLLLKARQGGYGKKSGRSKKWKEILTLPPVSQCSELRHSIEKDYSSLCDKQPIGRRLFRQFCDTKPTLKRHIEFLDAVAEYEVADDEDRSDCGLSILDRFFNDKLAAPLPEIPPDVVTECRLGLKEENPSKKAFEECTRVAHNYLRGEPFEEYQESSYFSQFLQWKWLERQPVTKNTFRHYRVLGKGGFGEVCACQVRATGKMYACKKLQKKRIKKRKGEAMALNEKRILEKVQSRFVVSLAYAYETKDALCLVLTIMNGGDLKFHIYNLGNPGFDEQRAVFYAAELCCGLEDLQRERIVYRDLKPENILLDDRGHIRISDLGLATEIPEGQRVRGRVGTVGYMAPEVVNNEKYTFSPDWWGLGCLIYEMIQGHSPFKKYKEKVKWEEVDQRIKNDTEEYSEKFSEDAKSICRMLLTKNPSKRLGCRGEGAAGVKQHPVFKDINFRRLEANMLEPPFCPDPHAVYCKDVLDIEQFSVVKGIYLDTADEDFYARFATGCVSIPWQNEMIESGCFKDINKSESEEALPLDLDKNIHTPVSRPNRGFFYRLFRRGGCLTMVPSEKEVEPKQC
T12 sequence (P68400 whole entry): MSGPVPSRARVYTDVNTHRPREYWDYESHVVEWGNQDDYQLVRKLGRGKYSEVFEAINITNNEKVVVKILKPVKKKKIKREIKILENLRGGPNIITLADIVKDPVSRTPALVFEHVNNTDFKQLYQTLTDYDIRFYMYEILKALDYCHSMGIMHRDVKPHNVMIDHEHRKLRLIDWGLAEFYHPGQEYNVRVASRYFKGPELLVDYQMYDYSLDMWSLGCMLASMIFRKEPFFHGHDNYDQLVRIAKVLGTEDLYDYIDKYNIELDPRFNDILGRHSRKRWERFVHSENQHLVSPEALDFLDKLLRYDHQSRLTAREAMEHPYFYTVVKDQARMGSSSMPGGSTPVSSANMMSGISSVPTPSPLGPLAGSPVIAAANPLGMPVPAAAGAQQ

Molecule Cc1cccc(-c2cnc3occ(-c4ccc(C(=O)O)c(C5CCCC5)c4)c3c2)c1 [SGC-CAMKK2-1 (YL-36)] has a remaining binding at 1 µM (MAP4K2) of 100%, a remaining binding at 1 µM (TAOK1) of 78% and a remaining binding at 1 µM [1] of 98%. It also gave a remaining binding at 1 µM (DMPK2) of 97%, a remaining binding at 1 µM (SBK1) of 100% and a remaining binding at 1 µM (CDK3) of 59%. For the same molecule, the remaining binding at 1 µM (ABL2) was 92%, the remaining binding at 1 µM (YSK1) was 100% and the remaining binding at 1 µM (TIE1) was 77%. For the same molecule, the remaining binding at 1 µM (TRPM6) was 100%, the remaining binding at 1 µM (ZAP70) was 100% and the remaining binding at 1 µM (CSNK2A1) was 94%. The remaining binding at 1 µM (FRK) was 100%, the remaining binding at 1 µM (EPHA2) was 100% and the remaining binding at 1 µM (MST1R) was 86%.

In the case of O=C(O)c1ccc(-c2coc3ncc(-c4ccccc4)cc23)cc1Cl [SGC-CAMKK2-1N (UNC-YL-83)], the remaining binding at 1 µM (ARK5) is reported as 84%, the remaining binding at 1 µM (FLT4) is reported as 82% and the remaining binding at 1 µM [2] is reported as 80%. The remaining binding at 1 µM (EGFR(S752-I759del)) was 100%, the remaining binding at 1 µM (CDK2) was 91% and the remaining binding at 1 µM (WNK2) was 58%. The remaining binding at 1 µM (CTK) was 63%, the remaining binding at 1 µM (PRKCE) was 100% and the remaining binding at 1 µM (PAK3) was 100%. It also gave a remaining binding at 1 µM (GRK4) of 100%, a remaining binding at 1 µM [3] of 61% and a remaining binding at 1 µM [4] of 59%. The remaining binding at 1 µM (MLK1) was 82%.

In the case of Cc1cccc(-c2cnc3occ(-c4ccc(C(=O)O)c(C5CCCC5)c4)c3c2)c1 [Compound 5], the “plasma concentration / in vivo PK (in words)” value [5] is reported as “poor in vivo PK”.
